The experiment concerns 511 bp segment of human prostate-specific membrane antigen (PSM) cDNA. Put plainly: PCR amplification of PSM cDNA with diol additives, standard cycling. The experiment is classed as biochemical. The following applies: PSM; for Specificity: best specificity (densitometric volume of target as percent of total volume) over the effective range; for Effective range: concentration interval over which densitometric volume of target is at least 50% of maximum; for Potency: normalized maximum densitometric volume of target band: 1,3-Butanediol = 1. How it is done:
Amplification reactions were carried out under the following general conditions. Those skilled in the art will appreciate, however, that to the extent that the conditions (set forth in this application) required for specific experiments described in this example were inconsistent with the following general conditions, limited exceptions to the following general conditions were made The general conditions were as follows: 10 Mm Tris-HCl (Ph 8.8), 50 Mm KCl, 1.5 Mm MgCl2, 0.01% (w/v) gelatin, 0.2 Um primers, 0.06 ng/ul template, 0.2 Mm each Dntp, 0.04 U/ul Taq polymerase. The templates used were bovine brain N-WASP cDNA (1518 bp), a 996 bp segment of human myeloid leukocyte c-jun cDNA, a 511 bp segment of human prostate-specific membrane antigen (PSM) cDNA, and bovine brain glycolipid transfer protein (GTP) cDNA (660 bp). cDNA synthesis was carried out using the FIRST-STRAND® RT-PCR kit from Stratagene on the respective mRNAs purchased from Clontech. All amplification reactions for gene were carried out using a single master batch of cDNA. Taq polymerase and dNTPs were obtained from Stratagene. Primers were obtained from Genosys. Primer melting temperatures (Tms) were calculated using the Genosys oligo calculator program. The sequences of the primers were as follows.
Polymerase chain reactions for the N-WASP gene were conducted on a ROBOCYCLER® Gradient 40 thermal cycler from Stratagene using 100 ul solutions in 600 ul thin-walled tubes. For expediency, amplification of c-jun, PSM and GTP was carried out in a ROBOCYCLER® Gradient 96 thermal cycler from Stratagene using 50 ul solutions in 200 ul thin-walled tubes. Prior to Taq polymerase addition, a hotstart protocol was carried out that consisted of an initial cycle of 95° C. for 5 minutes (11) to ensure complete first-strand separation, followed by a cycle of 54° C. for 5 minutes. Amplifications were run for 30 cycles. […] Extension was done at 72° C. for periods depending on target length: 2 minutes for N-WASP, 1.5 minutes for c-jun and GTP, and 1 minute for PSM. Annealings were carried out either at fixed concentrations of additives using temperature gradients of 38-56° C. for N-WASP and 44-58° C. for the other targets, or at varying concentrations of additives using fixed temperatures of 41° C. for N-WASP, 50° C. for c-jun and PSM, and 54° C. for GTP.
Amplification products were analyzed by agarose gel electrophoresis on 0.8% agarose gels in which 20 ul reaction products were loaded with 4 ul loading buffer. Gels were stained with ethidium bromide, visualized on a UV transilluminator (Fisher), and documented by photography. Densitometric quantitation of amplification products was carried out using IMAGE SCANNER® and IMAGE MASTER® software from Amersham Pharmacia. Background correction was done using the software's rolling disc method.
With PSM, 1,2-propanediol, 1,2-butanediol, 1,3-butanediol, 1,4-butanediol and glycerol were tested; with c-jun, ethylene glycol and 1,3-propanediol were also tested in addition to these compounds. […] The following additive concentrations were tested using these annealing temperatures: 1,2-propanediol—0.5, 0.8, 1.1, 1.4, 1.7 and 2.0M; 1,2-butanediol—0.1, 0.3, 0.5, 0.6, 0.7 and 0.8M; 1,3-butanediol—0.1, 0.3, 0.5, 0.6, 0.9, 1.1, 1.2M; 1,4-butanediol—0.1 to 1.1M in 0.2M intervals; 1,5-pentanediol—0.1-0.6M in 0.1M intervals; glycerol—0.5 to 1.9M in 0.2M intervals, and 2.2M.

Molecules are shown by their SMILES.

Regarding `CCC(O)CO` (stereo not drawn) [1,2-Butanediol], the Specificity is given as 92%, the “Effective range” value fell in the range of 0.34 to 0.73 M and the Potency stood at 0.42.
In the case of `OCCCCCO` [1,5-Pentanediol], the Specificity was 94%, the “Effective range” value is 0.31 to 0.49 M and the Potency is 0.54.

The values are drawn from patent US7772383B2, “Chemical PCR: Compositions for enhancing polynucleotide amplification reactions” (The Trustees of Princeton University, priority 2002, dated 2010).
